US12441726B2, “Compounds and uses thereof” (Foghorn Therapeutics Inc., priority 2020, dated 2025)

How the values were obtained:
[1] = target: BRM (Homo sapiens, UniProt P51531); assay: ATPase catalytic activity assay (ADP-Glo), BRM; details: 30 nM BRM, 400 μM ATP; for IC50: BRM ATPase: IC50 (uM)
[2] = target: BRG-1 (Homo sapiens, UniProt P51532); assay: ATPase catalytic activity assay (ADP-Glo), BRG-1; details: for Emax: 1 h, read-out: BRG1 Max % Inhibition, ADP-Glo, 30 nM BRG-1, 400 μM ATP
BRG-1, sequence (P51532 whole entry): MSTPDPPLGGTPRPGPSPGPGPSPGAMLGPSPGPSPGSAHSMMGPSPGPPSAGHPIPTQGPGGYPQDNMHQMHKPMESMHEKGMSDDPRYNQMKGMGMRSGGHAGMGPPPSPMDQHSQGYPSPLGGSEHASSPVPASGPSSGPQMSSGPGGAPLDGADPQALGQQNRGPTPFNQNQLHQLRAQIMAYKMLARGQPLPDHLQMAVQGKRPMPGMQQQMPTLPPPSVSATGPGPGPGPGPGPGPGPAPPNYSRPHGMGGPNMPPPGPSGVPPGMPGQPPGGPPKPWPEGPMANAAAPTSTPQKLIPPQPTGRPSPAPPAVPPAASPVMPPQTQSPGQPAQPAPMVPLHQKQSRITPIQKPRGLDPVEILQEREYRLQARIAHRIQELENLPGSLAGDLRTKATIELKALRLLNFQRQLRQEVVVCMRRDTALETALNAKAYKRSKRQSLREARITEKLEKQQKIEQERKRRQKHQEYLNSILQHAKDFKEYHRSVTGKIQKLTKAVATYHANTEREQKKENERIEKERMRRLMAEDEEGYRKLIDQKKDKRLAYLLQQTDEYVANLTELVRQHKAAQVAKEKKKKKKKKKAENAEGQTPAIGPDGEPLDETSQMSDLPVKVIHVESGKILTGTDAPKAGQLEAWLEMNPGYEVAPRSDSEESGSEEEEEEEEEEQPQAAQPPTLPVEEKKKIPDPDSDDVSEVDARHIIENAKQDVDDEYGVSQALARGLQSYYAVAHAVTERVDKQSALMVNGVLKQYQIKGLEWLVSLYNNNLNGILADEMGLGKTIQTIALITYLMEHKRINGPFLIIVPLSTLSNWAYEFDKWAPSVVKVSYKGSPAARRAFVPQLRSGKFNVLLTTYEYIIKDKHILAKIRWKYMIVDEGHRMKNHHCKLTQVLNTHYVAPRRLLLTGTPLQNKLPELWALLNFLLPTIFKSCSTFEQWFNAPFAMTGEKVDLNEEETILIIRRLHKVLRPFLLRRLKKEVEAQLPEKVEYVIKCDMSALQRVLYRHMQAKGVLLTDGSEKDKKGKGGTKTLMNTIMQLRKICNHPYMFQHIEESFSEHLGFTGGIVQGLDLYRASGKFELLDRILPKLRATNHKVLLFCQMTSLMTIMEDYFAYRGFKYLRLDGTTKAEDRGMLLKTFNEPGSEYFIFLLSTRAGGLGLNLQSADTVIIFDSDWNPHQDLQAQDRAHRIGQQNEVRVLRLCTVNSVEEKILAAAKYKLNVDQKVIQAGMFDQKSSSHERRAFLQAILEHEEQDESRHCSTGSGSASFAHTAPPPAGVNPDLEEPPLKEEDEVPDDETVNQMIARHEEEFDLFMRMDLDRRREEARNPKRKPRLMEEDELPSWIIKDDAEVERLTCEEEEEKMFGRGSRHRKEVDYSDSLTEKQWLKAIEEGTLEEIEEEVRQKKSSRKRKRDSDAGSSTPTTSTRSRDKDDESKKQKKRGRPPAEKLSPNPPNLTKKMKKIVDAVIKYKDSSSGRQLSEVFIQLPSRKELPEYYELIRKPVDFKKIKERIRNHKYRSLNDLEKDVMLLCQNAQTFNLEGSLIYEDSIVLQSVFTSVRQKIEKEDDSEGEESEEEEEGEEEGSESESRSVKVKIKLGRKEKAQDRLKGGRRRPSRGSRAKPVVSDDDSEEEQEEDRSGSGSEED

BRM, sequence (P51531 whole entry): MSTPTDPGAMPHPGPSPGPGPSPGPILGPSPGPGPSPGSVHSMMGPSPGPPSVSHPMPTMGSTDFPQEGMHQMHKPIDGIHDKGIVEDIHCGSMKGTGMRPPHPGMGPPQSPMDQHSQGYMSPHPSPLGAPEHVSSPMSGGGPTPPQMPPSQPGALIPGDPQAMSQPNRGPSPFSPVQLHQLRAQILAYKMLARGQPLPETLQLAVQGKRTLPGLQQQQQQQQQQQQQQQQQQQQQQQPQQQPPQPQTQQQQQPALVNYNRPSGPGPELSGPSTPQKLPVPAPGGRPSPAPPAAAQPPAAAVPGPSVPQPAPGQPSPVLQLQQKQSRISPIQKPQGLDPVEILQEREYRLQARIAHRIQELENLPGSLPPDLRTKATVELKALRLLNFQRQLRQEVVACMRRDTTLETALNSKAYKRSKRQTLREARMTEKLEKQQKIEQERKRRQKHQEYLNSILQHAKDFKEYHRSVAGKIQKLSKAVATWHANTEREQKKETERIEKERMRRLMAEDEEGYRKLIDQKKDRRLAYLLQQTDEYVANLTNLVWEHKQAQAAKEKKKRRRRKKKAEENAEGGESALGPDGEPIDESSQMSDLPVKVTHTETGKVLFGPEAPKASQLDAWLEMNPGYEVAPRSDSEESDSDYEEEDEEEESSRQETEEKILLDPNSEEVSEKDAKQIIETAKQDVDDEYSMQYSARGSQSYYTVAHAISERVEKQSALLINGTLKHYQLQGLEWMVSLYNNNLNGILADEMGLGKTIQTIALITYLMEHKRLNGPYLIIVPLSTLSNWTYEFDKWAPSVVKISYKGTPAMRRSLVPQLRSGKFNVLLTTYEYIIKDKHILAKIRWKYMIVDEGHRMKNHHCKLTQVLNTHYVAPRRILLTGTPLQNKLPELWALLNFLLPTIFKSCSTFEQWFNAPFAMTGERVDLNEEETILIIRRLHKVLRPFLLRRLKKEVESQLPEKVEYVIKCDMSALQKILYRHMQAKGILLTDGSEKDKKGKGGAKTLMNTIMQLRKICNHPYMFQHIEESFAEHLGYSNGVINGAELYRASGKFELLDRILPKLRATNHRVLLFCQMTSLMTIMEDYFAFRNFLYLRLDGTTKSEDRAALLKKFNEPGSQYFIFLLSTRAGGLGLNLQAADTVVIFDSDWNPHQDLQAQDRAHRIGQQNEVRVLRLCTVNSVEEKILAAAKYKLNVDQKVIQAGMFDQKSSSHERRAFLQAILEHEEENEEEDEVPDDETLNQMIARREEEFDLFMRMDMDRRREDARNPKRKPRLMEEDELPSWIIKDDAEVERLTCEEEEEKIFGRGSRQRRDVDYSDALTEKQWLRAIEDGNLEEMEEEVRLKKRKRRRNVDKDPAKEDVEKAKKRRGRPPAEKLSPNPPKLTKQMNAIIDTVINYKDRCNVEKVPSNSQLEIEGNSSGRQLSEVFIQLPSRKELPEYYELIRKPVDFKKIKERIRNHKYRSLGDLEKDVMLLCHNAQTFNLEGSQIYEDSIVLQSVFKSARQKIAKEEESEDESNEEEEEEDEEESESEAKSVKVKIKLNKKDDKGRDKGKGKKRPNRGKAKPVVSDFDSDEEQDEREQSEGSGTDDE

`Cn1nccc(-c2ccc3cnc(CNC(=O)c4ccc5c(c4)[C@](C)(F)COC5)cc3n2)c1=O` [Compound 293] was tested, and the “BRM Max % Inhibition” value [1] was 88%, the IC50 [1] was 0.1 to 0.5 µM and the IC50 [2] was greater than 1000 nM. It also gave an Emax [2] of 33%.
With `C[C@@]1(C#N)COCc2ccc(C(=O)NCc3cc4cc(-c5ccnc(N6CCC6)c5F)cnc4cn3)cc21` [Compound 294] the “BRM Max % Inhibition” value [1] was 100%, the IC50 [1] was less than 0.1 µM and the IC50 [2] was 100 to 500 nM. The Emax [2] was 86%.
In the case of `C[C@@]1(F)COCc2ccc(C(=O)NCc3cc4nc(-c5cccc(N6CCC6)n5)ccc4cn3)cc21` [Compound 295], the “BRM Max % Inhibition” value [1] is reported as 100%, the IC50 [1] is reported as less than 0.1 µM and the IC50 [2] is reported as 100 to 500 nM. The Emax [2] was 93%.
`C[C@@]1(F)COCc2ncc(C(=O)NCc3cc4nc(-c5ccnc(N6CCC6)c5F)ccc4cn3)cc21` [Compound 296] was tested, and the “BRM Max % Inhibition” value [1] was 100%, the IC50 [1] was less than 0.1 µM and the IC50 [2] was 100 to 500 nM. For the same compound, the Emax [2] was 88%.
In the case of `COc1cnn(C)c1-c1ccc2cnc(CNC(=O)c3ccc4c(c3)[C@](C)(C#N)COC4)cc2n1` [Compound 297], the “BRM Max % Inhibition” value [1] is reported as 96%, the IC50 [1] is reported as 0.1 to 0.5 µM and the IC50 [2] is reported as 500 to 1000 nM. It also gave an Emax [2] of 66%.
In the case of `C[C@@]1(C#N)COCc2ccc(C(=O)NCc3cc4c(cn3)CCN(c3cncc(N5CCC5)n3)C4)cc21` [Compound 298], the “BRM Max % Inhibition” value [1] is reported as 99%, the IC50 [1] is reported as less than 0.1 µM and the IC50 [2] is reported as 100 to 500 nM. It also gave an Emax [2] of 82%.
For `CC(F)(F)c1cncc(-c2ccc3cnc(CNC(=O)c4ccc5c(c4)[C@](C)(C#N)COC5)cc3n2)n1` [Compound 299], the “BRM Max % Inhibition” value [1] was 99%, the IC50 [1] was less than 0.1 µM and the IC50 [2] was 500 to 1000 nM. The Emax [2] was 78%.
With `C[C@@]1(F)COCc2ccc(C(=O)NCc3cc4nc(-c5ccccc5)sc4cn3)cc21` [Compound 300] the “BRM Max % Inhibition” value [1] was 99%, the IC50 [1] was 0.1 to 0.5 µM and the IC50 [2] was 500 to 1000 nM. The Emax [2] was 63%.
`C[C@@]1(F)COCc2ncc(C(=O)NCc3cc4nc(-c5cncc(C6CC6)n5)ccc4cn3)cc21` [Compound 301] was tested, and the “BRM Max % Inhibition” value [1] was 96%, the IC50 [1] was less than 0.1 µM and the IC50 [2] was 100 to 500 nM. It also gave an Emax [2] of 86%.
With `C[C@@]1(F)COCc2ccc(C(=O)NCc3cc4nc(-c5cccc(C6(O)CCOCC6)n5)ccc4cn3)cc21` [Compound 302] the “BRM Max % Inhibition” value [1] was 93%, the IC50 [1] was 0.1 to 0.5 µM and the IC50 [2] was 500 to 1000 nM. For the same compound, the Emax [2] was 58%.
In the case of `C[C@@]1(C#N)COCc2ccc(C(=O)NCc3cc4nc(N5Cc6ccccc6C5=O)ccc4cn3)cc21` [Compound 303], the “BRM Max % Inhibition” value [1] is reported as 96%, the IC50 [1] is reported as 0.1 to 0.5 µM and the IC50 [2] is reported as 100 to 500 nM. For the same compound, the Emax [2] was 87%.
In the case of `C[C@@]1(C#N)COCc2ccc(C(=O)NCc3cc4c(cn3)CCN(c3cccc(C(F)F)n3)C4)cc21` [Compound 304], the “BRM Max % Inhibition” value [1] is reported as 86%, the IC50 [1] is reported as 0.1 to 0.5 µM and the IC50 [2] is reported as greater than 1000 nM. For the same compound, the Emax [2] was 38%.
In the case of `Cn1cc(-c2ccc3cnc(CNC(=O)c4ccc5c(c4)[C@](C)(F)COC5)cc3n2)c(C#N)n1` [Compound 305], the “BRM Max % Inhibition” value [1] is reported as 87%, the IC50 [1] is reported as 0.1 to 0.5 µM and the IC50 [2] is reported as greater than 1000 nM. For the same compound, the Emax [2] was 40%.
`C[C@@]1(C#N)COCc2ccc(C(=O)NCc3cc4nc(-c5ccnc(N6CC[C@@H](F)C6)n5)ccc4cn3)cc21` [Compound 306] was tested, and the “BRM Max % Inhibition” value [1] was 99%, the IC50 [1] was less than 0.1 µM and the IC50 [2] was 100 to 500 nM. It also gave an Emax [2] of 94%.
For `C[C@@]1(F)COCc2ccc(C(=O)NCc3cc4nc(-c5ccnc(N6CC[C@H]7COC[C@@H]7C6)n5)ccc4cn3)cc21` [Compound 307], the “BRM Max % Inhibition” value [1] was 98%, the IC50 [1] was less than 0.1 µM and the IC50 [2] was 100 to 500 nM. It also gave an Emax [2] of 97%.
In the case of `C[C@@]1(F)COCc2ccc(C(=O)NCc3cc4nc(-c5ccnc(N6CC[C@@H]7COC[C@H]7C6)n5)ccc4cn3)cc21` [Compound 308], the “BRM Max % Inhibition” value [1] is reported as 99%, the IC50 [1] is reported as less than 0.1 µM and the IC50 [2] is reported as less than 100 nM. It also gave an Emax [2] of 96%.
`C[C@@]1(C#N)COCc2ccc(C(=O)NCc3cc4nc(-c5ccn6ncc(C(F)F)c6n5)ccc4cn3)cc21` [Compound 309] was tested, and the “BRM Max % Inhibition” value [1] was 97%, the IC50 [1] was less than 0.1 µM and the IC50 [2] was 100 to 500 nM. The Emax [2] was 82%.
For `C[C@@]1(C#N)COCc2ccc(C(=O)NCc3cc4nc(-c5ccnc(N6C[C@H]7C[C@@H]6CO7)n5)ccc4cn3)cc21` [Compound 310], the “BRM Max % Inhibition” value [1] was 97%, the IC50 [1] was less than 0.1 µM and the IC50 [2] was 100 to 500 nM. It also gave an Emax [2] of 84%.
For `C[C@@]1(C#N)COCc2ccc(C(=O)NCc3cc4nc(-c5cncc(N6CC[C@H](F)C6)n5)ccc4cn3)cc21` [Compound 311], the “BRM Max % Inhibition” value [1] was 99%, the IC50 [1] was less than 0.1 µM and the IC50 [2] was 100 to 500 nM. The Emax [2] was 95%.
With `C[C@@]1(C#N)COCc2ccc(C(=O)NCc3cc4nc(N5CCN(C6CC6)C5=O)ccc4cn3)cc21` [Compound 312] the “BRM Max % Inhibition” value [1] was 83%, the IC50 [1] was 0.1 to 0.5 µM and the IC50 [2] was greater than 1000 nM. For the same compound, the Emax [2] was 46%.
With `C[C@@]1(C#N)COCc2ccc(C(=O)NCc3cc4nc(N5CCN(C6CCC6)C5=O)ccc4cn3)cc21` [Compound 313] the “BRM Max % Inhibition” value [1] was 92%, the IC50 [1] was 0.1 to 0.5 µM and the IC50 [2] was 500 to 1000 nM. It also gave an Emax [2] of 72%.
For `C[C@@]1(C#N)COCc2ccc(C(=O)NCc3cc4c(cn3)CCN(c3cncc(N5CCOCC5)n3)C4)cc21` [Compound 314], the “BRM Max % Inhibition” value [1] was 96%, the IC50 [1] was less than 0.1 µM and the IC50 [2] was 100 to 500 nM. For the same compound, the Emax [2] was 83%.
With `C[C@@]1(C#N)COCc2ccc(C(=O)NCc3cc4nc(N5CCCN(C6CC6)C5=O)ccc4cn3)cc21` [Compound 315] the “BRM Max % Inhibition” value [1] was 81%, the IC50 [1] was 0.1 to 0.5 µM and the IC50 [2] was greater than 1000 nM. The Emax [2] was 33%.
`COCCOCCNC(=O)c1cccc(-c2ccc3cnc(CNC(=O)c4ccc5c(c4)[C@](C)(C#N)COC5)cc3n2)c1` [Compound 316] was tested, and the “BRM Max % Inhibition” value [1] was 98%, the IC50 [1] was 0.1 to 0.5 µM and the IC50 [2] was greater than 1000 nM. The Emax [2] was 92%.
For `CN1CCC(NC(=O)c2cccc(-c3ccc4cnc(CNC(=O)c5ccc6c(c5)[C@](C)(C#N)COC6)cc4n3)c2)CC1` [Compound 317], the “BRM Max % Inhibition” value [1] was 100%, the IC50 [1] was 0.1 to 0.5 µM and the IC50 [2] was greater than 1000 nM. The Emax [2] was 96%.
With `C[C@@]1(F)COCc2ccc(C(=O)NCc3cc4nc(-c5ccc(=O)n(CC(F)F)n5)ccc4cn3)cc21` [Compound 318] the “BRM Max % Inhibition” value [1] was 107%, the IC50 [1] was 0.1 to 0.5 µM and the IC50 [2] was 500 to 1000 nM. The Emax [2] was 55%.
`C[C@@]1(F)COCc2ccc(C(=O)NCc3cc4nc(-c5cncc(N6CCOCC6)n5)ccc4cn3)cc21` [Compound 319] was tested, and the “BRM Max % Inhibition” value [1] was 104%, the IC50 [1] was less than 0.1 µM and the IC50 [2] was 100 to 500 nM. The Emax [2] was 92%.
For `CC(=O)N1CCOc2c(-c3ccc4cnc(CNC(=O)c5ccc6c(c5)[C@](C)(C#N)COC6)cc4n3)cccc21` [Compound 320], the “BRM Max % Inhibition” value [1] was 107%, the IC50 [1] was 0.1 to 0.5 µM and the IC50 [2] was 500 to 1000 nM. For the same compound, the Emax [2] was 80%.
For `C[C@@]1(C#N)COCc2ccc(C(=O)NCc3cc4nc(-c5ccnc(N6CC7CC7C6)n5)ccc4cn3)cc21` (stereo partly shown) [Compound 321], the “BRM Max % Inhibition” value [1] was 105%, the IC50 [1] was less than 0.1 µM and the IC50 [2] was 100 to 500 nM. It also gave an Emax [2] of 95%.
With `C[C@H]1CN(c2nccc(-c3ccc4cnc(CNC(=O)c5ccc6c(c5)[C@](C)(C#N)COC6)cc4n3)n2)CCO1` [Compound 322] the “BRM Max % Inhibition” value [1] was 106%, the IC50 [1] was less than 0.1 µM and the IC50 [2] was less than 100 nM. It also gave an Emax [2] of 97%.
With `COCCNC(=O)c1ccc(-c2ccc3cnc(CNC(=O)c4ccc5c(c4)[C@](C)(C#N)COC5)cc3n2)cc1` [Compound 323] the “BRM Max % Inhibition” value [1] was 108%, the IC50 [1] was 0.1 to 0.5 µM and the IC50 [2] was 500 to 1000 nM. The Emax [2] was 76%.
